We go through three compounds from patent EP2716638A1, “Labeled ligands of the oxytocyn receptor” (Université de Strasbourg, priority 2012, dated 2014).

For one experiment, the target named is T1, OTR (Homo sapiens, UniProt P30559).
T1 construct: expressed in transfected cells; host or cells: HEK 293T (printed for the general protocol, whose plasmid sentence names only the V2 receptor)
T1 sequence (P30559 1-389): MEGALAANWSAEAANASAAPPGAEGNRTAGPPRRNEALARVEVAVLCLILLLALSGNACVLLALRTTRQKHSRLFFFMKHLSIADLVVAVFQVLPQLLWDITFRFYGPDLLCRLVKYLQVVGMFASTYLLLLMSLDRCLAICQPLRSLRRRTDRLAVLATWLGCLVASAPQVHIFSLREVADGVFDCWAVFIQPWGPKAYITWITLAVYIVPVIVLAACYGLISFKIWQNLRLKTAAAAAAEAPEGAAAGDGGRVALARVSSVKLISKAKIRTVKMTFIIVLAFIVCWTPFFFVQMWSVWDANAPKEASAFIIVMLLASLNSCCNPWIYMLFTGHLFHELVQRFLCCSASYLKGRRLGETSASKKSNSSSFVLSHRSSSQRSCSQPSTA
The experiment can be described thus: TR-FRET (HTRF) saturation binding assay on SNAP-tag labeled receptor in cells. The settings on record: saturation with fluorescent ligand; mean ± SEM of three independent experiments in triplicate; read-out: Binding, HTRF (Kd, nM) OT. The procedure: (§1) These assays were performed as described in Zwier et al (Journal of Biomolecular Screening 2010, 15, 1248-1259). Briefly, HEK 293T cells were cultivated in DMEM medium supplemented with 10% foetal calf serum (FCS) and 1% penicillin/streptomycin antibiotics. Confluent cells were dissociated and electroporated with plasmid DNA coding for the V2 receptor fused to the SNAP-tag suicide enzyme. Transfected cells were then plated in black 96-well plates previously coated with poly-ornithine (diluted at 0.1 mg.mL^-1 in sterile water, incubated 30 min at 37°C, washed with sterile PBS). Plates were incubated in supplemented DMEM medium for 48h à 37°C, […] and 5% CO2. Expressed receptors fused to SNAPtag were then labeled with fluorescent substrates, either with a donor (SNAP-Lumi4-Tb) or an acceptor (SNAP-RED) at respectively 100 or 300 nM in 100 µL of Tag-lite® labeling medium, for 1 h at 37 °C. Cells were then washed 3 times in Tag-lite medium and then incubated with the fluorescent ligands. For saturation assays, increasing concentrations of fluorescent ligands were diluted in 100 µL of Tag-lite medium. For competition assays, a fixed concentration of fluorescent ligand (typically 20 nM) was mixed with an increasing concentration of cold competitor ligand (in this case AVP) in Tag-lite medium. After overnight incubation at 4 °C (to prevent any internalization phenomenon), plates were read in an HTRF®-compatible multi-well plate reader with a classic HTRF® protocol (excitation at 340 nm, donor emission measured at 620 nm and acceptor emission at 665 nm, 50 µs delay, 500 µs integration).
(§2) Fluorescent compounds 21 to 24 were involved in the development of a TR-FRET based assay for both V1aR and OTR. Such technique usually offers a higher signal-to-noise ratio than classic FRET because of the long-lasting fluorescence of the lanthanide cryptate. TR-FRET based saturation experiments with fluorescent compounds 21 to 24 were performed on V1a, OT and V2 receptors labeled with the SNAP-tag® approach: cells expressing a receptor of interest fused to SNAP-tag are incubated in the presence of a fluorescent substrate to label the receptor. Cells were then incubated in the presence of increasing concentrations of a fluorescent ligand. Fluorophores of the SNAP-tag substrates and of the ligands are chosen to be compatible with time-resolved FRET. SNAP-tagged receptors were labeled either with a Lumi4-Tb donor (SNAP-Lumi4-Tb) or d2 acceptor (SNAP-red) depending on the nature of the ligands, either acceptor (21, 22) or donor (23, 24). Saturation curves were obtained when plotting specific FRET signal as a function of fluorescent compounds concentration; non-specific binding was determined in the presence of an excess of the unlabeled corresponding ligands (10 µM) (Figure 1).

Another experiment has as its target T2, V1aR (Homo sapiens, UniProt P37288).
T2 construct: expressed in transfected cells; host or cells: HEK 293T (printed for the general protocol, whose plasmid sentence names only the V2 receptor)
The description is as above. The settings on record: saturation with fluorescent ligand; mean ± SEM of three independent experiments in triplicate; read-out: Binding, HTRF (Kd, nM) V1a. On the procedure: as §1, §2
A general note: In TR-FRET formats the signal depends on donor and acceptor labels being close together.

Another experiment concerns the target T3, V2 receptor (Homo sapiens, UniProt P30518).
T3 construct: expressed in transfected cells; host or cells: HEK 293T
The description is as above. The following applies: saturation with fluorescent ligand; mean ± SEM of three independent experiments in triplicate. On the procedure:
as §1, §2

For experiment [1], the system named is cAMP accumulation. The experiment is described as follows: cAMP accumulation functional assay (agonist and antagonist mode). It counts as cell-based. In general terms: cAMP levels reflect the balance of adenylyl cyclase and phosphodiesterase activity.
The test system of experiment [2] is cAMP accumulation. The description is as above. Format: cell-based. The source holds these as a separate data set.
Where [3] appears, read: cell incubation with fluorescent compound at a concentration of 100-fold Ki.

T2 sequence (P37288 whole entry): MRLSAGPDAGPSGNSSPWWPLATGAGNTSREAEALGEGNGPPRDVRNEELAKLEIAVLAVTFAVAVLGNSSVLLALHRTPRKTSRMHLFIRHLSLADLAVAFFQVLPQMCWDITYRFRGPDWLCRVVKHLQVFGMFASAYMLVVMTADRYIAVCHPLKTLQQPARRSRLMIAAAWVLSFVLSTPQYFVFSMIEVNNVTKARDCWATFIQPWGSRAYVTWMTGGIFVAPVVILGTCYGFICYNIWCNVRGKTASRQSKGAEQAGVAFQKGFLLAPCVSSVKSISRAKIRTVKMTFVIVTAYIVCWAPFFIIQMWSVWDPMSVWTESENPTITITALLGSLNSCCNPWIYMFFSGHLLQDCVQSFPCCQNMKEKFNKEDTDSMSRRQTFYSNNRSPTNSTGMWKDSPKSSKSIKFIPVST
T3 sequence (P30518 whole entry): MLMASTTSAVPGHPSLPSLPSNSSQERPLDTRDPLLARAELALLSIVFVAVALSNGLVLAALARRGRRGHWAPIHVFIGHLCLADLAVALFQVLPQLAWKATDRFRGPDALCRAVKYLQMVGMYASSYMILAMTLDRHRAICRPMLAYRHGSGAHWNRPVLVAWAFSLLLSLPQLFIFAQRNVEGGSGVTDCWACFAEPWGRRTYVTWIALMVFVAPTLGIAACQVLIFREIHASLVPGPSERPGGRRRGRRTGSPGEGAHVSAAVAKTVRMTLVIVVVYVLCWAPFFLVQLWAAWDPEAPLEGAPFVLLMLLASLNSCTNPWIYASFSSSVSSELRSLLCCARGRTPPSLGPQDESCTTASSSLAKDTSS

A word on the Kd: it is the free concentration of one partner at which half of the binding sites on the other are occupied at equilibrium, for simple one-to-one binding. Take `CCN1C(=CC=CC=CC2=[N+](CC)c3ccc(S(=O)(=O)[O-])cc3C2(C)C)C(C)(CCCC(=O)NCCOCCN2CCN(CCCCCCOc3cccc(C)c3-n3c(C)nnc3-c3ccc(-c4ccccc4)cc3)CC2)c2cc(S(=O)(=O)O)ccc21` (stereo not shown) [Compound 21]: the Kd is 7 ± 2 nM on OTR, 6 ± 2 nM on V1aR and over 1000 nM on V2 receptor. Also, in the experiment on cAMP accumulation [1] (setting [3]), the “cyclic adenosine monophosphate (cAMP) accumulation (intrinsic agonist activity)” value is listed as “No significant increase in accumulation of second messengers”. For the same compound, the “inhibition of AVP-induced cAMP accumulation” value in the experiment with cAMP accumulation [1] (dose-dependent, antagonist mode) is recorded as “fully inhibited”.

For `CCN1C(=CC=CC=CC2=[N+](CC)c3ccc(S(=O)(=O)[O-])cc3C2(C)C)C(C)(CCCC(=O)NCCOCCOCCOCCN2CCN(CCCCCCOc3cccc(C)c3-n3c(C)nnc3-c3ccc(-c4ccccc4)cc3)CC2)c2cc(S(=O)(=O)O)ccc21` (stereo not shown) [Compound 22], the Kd at OTR is 11 ± 2 nM; at V1aR, 10 ± 2 nM; at V2 receptor it was over 1000 nM.

For arginine vasopressin [AVP], the EC50 in the experiment with cAMP accumulation [2] (cAMP accumulation, agonist potency, read-out: Kact) came out at 0.29 nM. The “cyclic adenosine monophosphate (cAMP) accumulation (intrinsic agonist activity)” value with cAMP accumulation [2] (setting [3]) is given as “full agonist properties”.
